Results: patent publication US6652921B2, “Wood containing fixed sorbic acid or sorbic acid salts” (Nutrinova Nutrition Specialties & Food Ingredients GmbH, priority 2000, dated 2003)

Tests used:
[1] = mean body weight of 60 kg
Description: Sorbic acid and its salts are accordingly permitted for food use by international committees and permitted worldwide as a preservative for direct addition to foods. The internationally established tolerable daily dose for humans of up to 25 mg/kg of body weight corresponds to a tolerable consumption by adults of up to 1.5 g per day (at a mean body weight of 60 kg).

[2] = cited from earlier work; for Solubility in water: water (cold water for sorbic acid)
[3] = humans; internationally established; cited from earlier work
fungi = details: cited from earlier work
wood-damaging fungi = details: cited from earlier work

C/C=C/C=C/C(=O)O [Sorbic acid, trans, trans-2,4-hexadienoic acid]
Tolerable consumption by adults [1]: up to 1.5 g per day | Solubility in liquid alcohols ([2]; liquid alcohols): good | Solubility in water [2]: dissolves only sparingly in cold water | Tolerable daily dose [3]: up to 25 mg/kg of body weight

C/C=C/C=C/C(=O)[O-].[Na+] [sodium sorbate]
Growth of fungi on treated bamboo (fungi; after a few days): growth of fungi and poorer results than the dehydroacetic acid | Activity depending on pH (fungi; bamboo): only active in these studies at a pH of 3.0

C/C=C/C=C/C(=O)[O-].C/C=C/C=C/C(=O)[O-].[Zn+2] [zinc salt of sorbic acid]
Activity as wood preservative (wood-damaging fungi): inactive

C/C=C/C=C/C(=O)[O-].[K+] [Potassium sorbate]
Solubility in water [2]: dissolves very readily in water
